From publication PMC11587516 (ACS Chemical Neuroscience, 2024)
Substitutions are numbered along the chain they refer to.

Experiments:
[1] = target: T1, hGAT1 (Homo sapiens, UniProt P30531); experiment: [3H]GABA uptake assay, CHO cells stably expressing hGAT1; type: cell-based
T1 construct: expressed in transfected cells

[2] = target: T2, hBGT1 wt (Homo sapiens, UniProt P48065); experiment: [3H]GABA uptake assay, wild type hBGT1 transiently expressed in tsA201 cells; type: cell-based
T2 construct: expressed in transfected cells; host or cells: tsA201 cells (transformed HEK293), transient expression
T2 sequence (P48065 1-614): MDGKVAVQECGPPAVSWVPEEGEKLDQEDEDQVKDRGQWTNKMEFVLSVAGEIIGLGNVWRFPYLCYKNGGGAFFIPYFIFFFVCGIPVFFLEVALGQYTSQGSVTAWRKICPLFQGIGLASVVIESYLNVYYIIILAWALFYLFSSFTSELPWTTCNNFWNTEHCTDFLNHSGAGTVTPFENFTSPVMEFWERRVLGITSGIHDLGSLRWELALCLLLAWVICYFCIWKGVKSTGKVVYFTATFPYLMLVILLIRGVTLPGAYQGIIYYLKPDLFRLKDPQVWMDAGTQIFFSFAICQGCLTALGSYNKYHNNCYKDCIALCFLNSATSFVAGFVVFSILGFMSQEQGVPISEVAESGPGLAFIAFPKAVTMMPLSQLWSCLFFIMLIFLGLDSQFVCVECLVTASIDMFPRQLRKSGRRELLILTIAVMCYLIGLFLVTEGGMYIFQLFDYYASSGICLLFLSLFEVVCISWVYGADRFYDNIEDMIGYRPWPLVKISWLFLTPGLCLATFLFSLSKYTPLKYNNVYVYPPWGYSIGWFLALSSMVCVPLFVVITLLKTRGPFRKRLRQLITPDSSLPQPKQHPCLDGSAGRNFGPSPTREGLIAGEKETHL
Method: (§1) To validate the molecular modeling, particularly the crucial interactions with the Glu52 and Gln299 residues, the activity of compound 9 was tested on the following hBGT1 mutants: E52A, E52Y, Q299L, and the double mutant E52A+Q299L (Figure 5 and Table 1).[14]
(§2) The CHO cells were placed in 96-well plates (approximately 50,000 cells/well) for about 24 h before the experiment. […] After incubation, cells were washed 3 times with 100 μL/well ice-cold assay buffer, 150 μL/well MicroScint20 (PerkinElmer) was subsequently added before the plate was shaken for at least 1 h. The radioactivity of each well of the plate was measured on a TopCount NXT scintillation counter. […] Data presented are the pooled data of at least three independent experiments with three technical replicates if not stated otherwise in figure legends. Concentration–response curves were fitted by nonlinear regression to the sigmoidal concentration–response model with GraphPad Prism v 9.0.
(§3) The tsA201 cell line (a transformed HEK293 cell line) has been described previously and was cultured accordingly.[20] The tsA201 cells used for transient expression of hBGT1 mutants were transfected with DNA constructs (8 μg per 10 cm plate) using 40 μL of PolyFect transfection reagent according to the manufacturer’s protocol (Qiagen). […]

[3] = target: T3, hBGT1 E52Y (Homo sapiens, UniProt P48065, E52Y); experiment: [3H]GABA uptake assay, hBGT1 mutant E52Y in tsA201 cells; type: cell-based
T3 construct: host or cells: tsA201 cells (transformed HEK293), transient expression
T3 sequence (P48065 1-614 E52Y): T2 sequence (P48065 1-614) with E52Y
Method: as §1, §2, §3

[4] = test system: GABAA receptors; experiment: GABAA receptor [3H]-muscimol radioligand binding assay, rat cortical membranes; settings: rat cortex
Method: A 10 mM stock solution of the tested compound was prepared in DMSO. Serial dilutions of the compound were prepared in 96-well microplates in assay buffers using automated pipetting system epMotion 5070 (Eppendorf). Each compound was tested in 8 concentrations from 10^–3 to 10^–10 M (final concentration). Radioligand binding was performed using tissue rat cortex according to the previous procedure.[22] All assays were carried out in duplicates. 50 μL of working solution of the tested compounds, 50 μL of [^3H]-muscimol (final concentration 2.0 nM), and 150 μL of tissue suspension prepared in assay buffer (50 mM Tris-HCl, pH 7.4) were transferred to polypropylene 96-well microplate using 96-well pipetting station Rainin Liquidator (Mettler-Toledo). […] The microplate was covered with sealing tape, mixed, and incubated for 15 min at 4 °C. The reaction was terminated by rapid filtration through GF/B filter mate. Ten rapid washes with 200 μL of 50 mM Tris buffer (4 °C, pH 7.4) were performed using 96-well FilterMate harvester (PerkinElmer). The filter mates were dried at 37 °C in forced air fan incubator and then solid scintillator MeltiLex was melted on filter mates at 90 °C for 4 min. The radioactivity on the filter was measured in MicroBeta TriLux 1450 scintillation counter (PerkinElmer). […]

[5] = test system: normal human astrocytes (NHA); experiment: Phase-contrast microscopy of normal human astrocytes in culture medium; type: cell-based; settings: 500 μM in culture medium; 72 h
Method: Taking into account the presence of BGT1 and GAT3 transporters in astrocytes, we studied the effect of compound 9 on astrocyte viability, proliferation, and homeostasis. Normal human astrocytes (NHA) were treated with 1–100 μM compound 9 in a culture medium. The WST-1 assay was used to determine the number of metabolically active cells after 24 and 48 h of incubation. […] In the next step, a higher concentration (500 μM) of the compound and a longer incubation time (72 h) were applied, and the cells were examined by phase-contrast microscopy. […] Considering the results shown in Figure 6, compound 9 was not cytotoxic toward human astrocytes under in vitro culture conditions.
Gibco Human Astrocytes (Thermo Fisher Scientific) were maintained in a humidified 5% CO2 incubator at 37 °C. The cells were cultured in Gibco Astrocyte Medium (DMEM with GlutaMAX, N-2 Supplement, and OneShot Fetal Bovine Serum) supplemented with penicillin G (100 U/mL), neomycin (10 μg/mL), and amphotericin B (0.25 μg/mL).

T1 sequence (P30531 whole entry): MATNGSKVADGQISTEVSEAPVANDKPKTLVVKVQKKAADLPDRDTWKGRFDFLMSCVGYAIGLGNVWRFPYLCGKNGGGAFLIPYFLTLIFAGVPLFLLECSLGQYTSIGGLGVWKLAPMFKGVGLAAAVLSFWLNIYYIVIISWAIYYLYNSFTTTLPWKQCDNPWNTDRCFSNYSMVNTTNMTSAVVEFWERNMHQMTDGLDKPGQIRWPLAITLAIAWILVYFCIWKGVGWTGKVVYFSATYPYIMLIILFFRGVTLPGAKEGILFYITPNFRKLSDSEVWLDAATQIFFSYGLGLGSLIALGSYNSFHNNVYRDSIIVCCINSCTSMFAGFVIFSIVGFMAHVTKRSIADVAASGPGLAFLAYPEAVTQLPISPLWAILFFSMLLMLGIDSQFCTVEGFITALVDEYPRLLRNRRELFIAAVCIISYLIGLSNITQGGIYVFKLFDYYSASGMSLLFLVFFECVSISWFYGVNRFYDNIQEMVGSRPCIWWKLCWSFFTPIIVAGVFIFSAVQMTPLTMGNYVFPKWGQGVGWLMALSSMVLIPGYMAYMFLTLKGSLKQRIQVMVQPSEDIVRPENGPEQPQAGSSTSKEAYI

**Q.** How did the IC50 [1] turn out when `NC12CC(C(=O)O)(C1)C2` [Compound 9] was run?
**A.** > 100 µM

**Q.** And the “inhibitory effect on [3H]GABA uptake” value ([1]; 100 μM, CHO cells)?
**A.** no inhibitory effect

**Q.** And the IC50 [2]?
**A.** 33.9 µM

**Q.** And the IC50 [3]?
**A.** > 1000 µM

**Q.** What about the “activity at mutant compared with wild type hBGT1” value ([3]; E52Y vs wt) of the same compound?
**A.** complete loss of activity

**Q.** What about the “displacement of [3H]-muscimol” value ([4]; 100 μM) of the same compound?
**A.** 4%

**Q.** And the “Ki ± SEM” value ([4]; [3H]-muscimol 2.0 nM)?
**A.** no affinity ^a

**Q.** What about the “astrocyte morphology and confluency” value [5] of the same compound?
**A.** no changes in astrocyte morphology and confluency
